The values below are quoted from earlier work in patent US20140011766A1, “ANTIMICROBIAL COMPOSITIONS AND METHODS” (priority 2012, published 2014).

The test system of the series is pathogens. To be noted: except for spores (specifically C. difficile spores).

As to `CCO` [Ethanol], the killing of pathogens is listed as 99.99%.
